How the values were obtained:
[1] = tested on: P. falciparum male gametocytes; assay: P. falciparum Dual Gamete Formation Assay (PfDGFA), male readout (exflagellation); assay type: cell-based, Plasmodium falciparum NF54; conditions: for Average inhibition male (%): average of replicates; for % inhibition male (individual replicates) R1: replicate R1; for % inhibition male (individual replicates) R3: replicate R3; for % inhibition male (individual replicates) R4: replicate R4; for Activity: hit = >50% inhibition in male or female readout in at least 3 replicates, 0 = no class assigned
Method in brief: (§1)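 Two sex-specific readouts come from one well: male exflagellation centres recorded by brightfield video right after activation, and female gametes scored by Cy3-anti-Pfs25 fluorescence after 24 h at 28°C.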

[2] = tested on: P. falciparum female gametocytes; assay: P. falciparum Dual Gamete Formation Assay (PfDGFA), female readout (Pfs25-positive female gametes); assay type: cell-based, Plasmodium falciparum NF54; conditions: for Average inhibition female (%): average of replicates; for % inhibition female (individual replicates) R1: replicate R1; for % inhibition female (individual replicates) R3: replicate R3; for % inhibition female (individual replicates) R4: replicate R4
Method in brief: as §1

[3] = 2µM, 24h preincubation with gametocytes prior to induction of gametogenesis
[4] = 2µM, 24h preincubation, number of replicates with >50% inhibition in the male readout
[5] = 2µM, 24h preincubation, number of replicates with >50% inhibition in the female readout
[6] = 2µM, 24h preincubation, hits selected on >50% inhibition in the male readout across replicates
[7] = PfDGFA at 2µM, 24h preincubation
[8] = 2µM, 24h preincubation, hits selected on >50% inhibition in the female readout across replicates
[9] = PfDGFA at 2µM, 24h preincubation with gametocytes prior to induction of gametogenesis

| SMILES | Average inhibition male (%) [1, 3] [%] | % inhibition male (individual replicates) R1 [1, 3] [%] | % inhibition male (individual replicates) R3 [1, 3] [%] | % inhibition male (individual replicates) R4 [1, 3] [%] | Average inhibition female (%) [2, 3] [%] | % inhibition female (individual replicates) R1 [2, 3] [%] | % inhibition female (individual replicates) R3 [2, 3] [%] | % inhibition female (individual replicates) R4 [2, 3] [%] | HitlevelM [1, 6] | Activity [1, 7] | HitlevelF [2, 8] | % inhibition male (individual replicates) R1 [1, 9] [%] | % inhibition male (individual replicates) R4 [1, 9] [%] | Average inhibition male (%) [1, 7] [%] | % inhibition female (individual replicates) R1 [2, 9] [%] | % inhibition female (individual replicates) R3 [2, 9] [%] | % inhibition female (individual replicates) R4 [2, 9] [%] | Average inhibition female (%) [2, 7] [%] | % inhibition male (individual replicates) R3 [1, 9] [%] | further results |
| --- | --- | --- | --- | --- | --- | --- | --- | --- | --- | --- | --- | --- | --- | --- | --- | --- | --- | --- | --- | --- |
| Cl.c1ccc2c(C3CCN(CCCCOc4ccc5c(c4)CCN(CC4CC4)CC5)CC3)c[nH]c2c1 [TCMDC-136244] | 8.5 | 7.6 | -1.4 | 14.2 | 24.9 | 21.4 | 5.1 | 24.5 | – | – | – | – | – | – | – | – | – | – | – | HitlevelM [1, 4]: 0; HitlevelF [2, 5]: 0 |
| Cc1ccc(-n2c(C)nc3c(Nc4ccc(-c5ccncc5)cc4)ncnc32)c(C)c1 [TCMDC-136289] | 51.6 | 92.5 | – | -28.8 | 6.8 | 7.7 | 15.7 | 3.5 | 2 | 0 | 0 | – | – | – | – | – | – | – | – | – |
| CN(C)CCCNCc1cn(S(=O)(=O)c2ccccc2Cl)c2ccccc12.Cl [TCMDC-136302] | 39.6 | 57.4 | 42.5 | 62.3 | 50.5 | 52.5 | 48.5 | 54.4 | – | – | – | – | – | – | – | – | – | – | – | HitlevelM [1, 4]: 2; HitlevelF [2, 5]: 2 |
| COc1ccc(CNC(=O)c2cnc3cc(-c4c(C)noc4C)ccc3c2Nc2ccccc2C(C)(C)C)cc1.Cl [TCMDC-136367] | – | – | – | – | – | – | – | – | – | – | – | -0.3 | -17.2 | -9.5 | -1.1 | -0.6 | 13.4 | 2.7 | – | – |
| COc1cc(Br)c(S(=O)(=O)n2cc(CN3CCC(N)CC3)c3cc(Cl)ccc32)cc1OC.O=C(O)C(F)(F)F [TCMDC-136384] | 17.6 | 5.7 | -10.3 | 29.6 | 13.1 | 17.7 | 22.3 | -2.1 | 0 | 0 | 0 | – | – | – | – | – | – | – | – | – |
| COc1cc(C(=O)N2CCN(C(C)C)CC2)ccc1CN(C)CCCCN1CCN(c2cccc(Cl)c2Cl)CC1.Cl [TCMDC-136506] | 24.1 | 21.0 | -5.5 | 30.9 | 13.2 | 17.9 | 17.6 | 12.7 | 1 | 0 | 0 | – | – | – | – | – | – | – | – | – |
| CN(C)Cc1c(O)ccc2[nH]c(-c3cccc(F)c3)nc12 [TCMDC-136535] | – | – | – | – | – | – | – | – | – | – | – | -6.0 | 8.9 | -3.8 | 14.3 | -20.0 | -2.1 | -3.2 | -26.3 | – |
| C[C@@H](CNc1ccnc(Nc2ccc3[nH]c(=O)[nH]c3c2)n1)c1ccccc1 [TCMDC-136803] | – | – | – | – | – | – | – | – | – | – | – | -12.9 | -10.1 | -9.4 | 0.6 | -4.3 | 9.5 | 0.458 | – | – |
| Cc1cc(N2CCCN(CC3CCCCC3)CC2)nc(Nc2ccc(Br)cc2)n1 [TCMDC-137133] | -4.7 | -4.0 | -2.0 | -6.5 | 14.4 | 13.7 | 2.2 | 35.3 | 0 | 0 | 0 | – | – | – | – | – | – | – | – | – |
| CCOc1cc(Cc2cnc(N)nc2N)cc(OCC)c1O [TCMDC-137181] | – | – | – | – | – | – | – | – | – | – | – | 23.6 | 11.2 | 22.7 | -0.02 | 1.9 | -15.6 | -3.9 | 21.9 | – |
| CNC(=O)C(NC(=O)c1ccccc1C(=O)OC)c1ccccc1 (centres unmarked) [TCMDC-137226] | – | – | – | – | – | – | – | – | – | – | – | 12.9 | -18.5 | -3.7 | 18.3 | -7.8 | -6.5 | 2.2 | -28.2 | – |
| COc1cc(Cc2cnc(N)nc2N)cc(OCCCCC2SC(=O)NC2=O)c1Br (centres unmarked) [TCMDC-137240] | – | – | – | – | – | – | – | – | – | – | – | 22.0 | -19.8 | 3.4 | 12.9 | 1.7 | -5.0 | 2.6 | 3.4 | – |
| Cc1nc2nc(N)nc(N)c2c(C)c1Cc1ccccc1Br.Cl [TCMDC-137242] | – | – | – | – | – | – | – | – | – | – | – | 34.5 | -12.5 | 16.6 | 10.1 | -11.3 | 2.1 | -2.4 | 1.0 | – |
| Cc1c(Cc2ccccc2Br)cnc2nc(N)nc(N)c12.Cl [TCMDC-137244] | – | – | – | – | – | – | – | – | – | – | – | 13.7 | 3.9 | 10.5 | 1.3 | -18.4 | -3.4 | -6.0 | 18.7 | – |
| CCC(CC)n1c(C)cc2c3c(N)nc(N)nc3ccc21 [TCMDC-137283] | 25.7 | 19.3 | 21.9 | 21.2 | 4.2 | -6.1 | 8.3 | 19.7 | 0 | 0 | 0 | – | – | – | – | – | – | – | – | – |
| CCCc1cc(Cc2cnc(N)nc2N)cc(CCC)c1OCCCCC(=O)O [TCMDC-137293] | -0.757 | 18.6 | 1.6 | -35.8 | 8.1 | 3.0 | -4.5 | 42.6 | 0 | 0 | 0 | – | – | – | – | – | – | – | – | – |
| CCN(CC)S(=O)(=O)n1ncc2c3c(N)nc(N)nc3ccc21.Cl [TCMDC-137302] | – | – | – | – | – | – | – | – | – | – | – | 16.7 | -41.8 | 0.1 | 5.9 | -12.1 | -12.9 | -8.3 | -8.5 | – |
| O=C1O[C@H](c2ccccc2)[C@H](c2ccccc2)N(C(=O)OCc2ccccc2)[C@H]1Cc1ccccc1C1CCCC1 [TCMDC-137303] | -2.7 | 16.1 | – | -23.7 | 4.6 | 6.2 | -0.36 | 6.0 | 0 | 0 | 0 | – | – | – | – | – | – | – | – | – |
| CCc1cc2c3c(N)nc(N)nc3ccc2n1C(C)(C)C [TCMDC-137306] | – | – | – | – | – | – | – | – | – | – | – | 25.5 | 15.6 | 21.0 | -1.8 | -28.9 | 1.8 | -7.8 | 27.4 | – |

Reference: publication PMC10584170, “Machine learning-based phenotypic imaging to characterise the targetable biology of Plasmodium falciparum male gametocytes for the development of transmission-blocking antimalarials” (PLOS Pathogens, 2023)
